# Reference: PubChem BioAssay (NCI)
#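 How tested: cells in 96-well plates exposed to compound for 48 hours at five concentrations. The concentration for 50% growth inhibition is given as GI50. TGI: total growth inhibition.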
# Tests used:
# Experiment in all cases: NCI anticancer screen, dose series, 48 h
# 786-0 renal = test system: 786-0 renal
# A498 renal = test system: A498 renal
# A549 NSCLC = test system: A549 NSCLC
# ACHN renal = test system: ACHN renal
# BT-549 breast = test system: BT-549 breast
# CAKI-1 renal = test system: CAKI-1 renal
# CCRF-CEM leukemia = test system: CCRF-CEM leukemia
# COLO 205 colon = test system: COLO 205 colon
# DU-145 prostate = test system: DU-145 prostate
# EKVX NSCLC = test system: EKVX NSCLC
# HCC-2998 colon = test system: HCC-2998 colon
# HCT-116 colon = test system: HCT-116 colon
# HCT-15 colon = test system: HCT-15 colon
# HL-60(TB) leukemia = test system: HL-60(TB) leukemia
# HOP-62 NSCLC = test system: HOP-62 NSCLC
# HOP-92 NSCLC = test system: HOP-92 NSCLC
# HS 578T breast = test system: HS 578T breast
# HT29 colon = test system: HT29 colon
# IGROV1 ovarian = test system: IGROV1 ovarian
# K-562 leukemia = test system: K-562 leukemia
# KM12 colon = test system: KM12 colon
# LOX IMVI melanoma = test system: LOX IMVI melanoma
# M14 melanoma = test system: M14 melanoma
# MALME-3M melanoma = test system: MALME-3M melanoma
# MCF7 breast = test system: MCF7 breast
# MDA-MB-231 breast = test system: MDA-MB-231 breast
# MDA-MB-435 = test system: MDA-MB-435
# MOLT-4 leukemia = test system: MOLT-4 leukemia
# NCI-H226 lung = test system: NCI-H226 lung
structure (smiles),measurement,setting,value
COC(=O)c1oc2c(C(=O)/C=C/c3ccc(OC)cc3)c(OCCN3CCOCC3)ccc2c1C,GI50,786-0 renal,1770 nM
same,TGI,786-0 renal,4100 nM
same,GI50,A498 renal,2040 nM
same,TGI,A498 renal,4690 nM
same,GI50,A549 NSCLC,2220 nM
same,TGI,A549 NSCLC,6070 nM
same,GI50,ACHN renal,1730 nM
same,TGI,ACHN renal,3620 nM
same,GI50,BT-549 breast,2420 nM
same,TGI,BT-549 breast,7910 nM
same,GI50,CAKI-1 renal,1740 nM
same,TGI,CAKI-1 renal,4940 nM
same,GI50,CCRF-CEM leukemia,395 nM
same,TGI,CCRF-CEM leukemia,2530 nM
same,GI50,COLO 205 colon,1580 nM
same,TGI,COLO 205 colon,3120 nM
same,GI50,DU-145 prostate,1750 nM
same,TGI,DU-145 prostate,4240 nM
same,GI50,EKVX NSCLC,1870 nM
same,TGI,EKVX NSCLC,7490 nM
same,GI50,HCC-2998 colon,1640 nM
same,TGI,HCC-2998 colon,3170 nM
same,GI50,HCT-116 colon,1600 nM
same,TGI,HCT-116 colon,4550 nM
same,GI50,HCT-15 colon,1460 nM
same,TGI,HCT-15 colon,3120 nM
same,GI50,HL-60(TB) leukemia,1440 nM
same,TGI,HL-60(TB) leukemia,4290 nM
same,GI50,HOP-62 NSCLC,2440 nM
same,TGI,HOP-62 NSCLC,6880 nM
same,GI50,HOP-92 NSCLC,1540 nM
same,TGI,HOP-92 NSCLC,5480 nM
same,GI50,HS 578T breast,1740 nM
same,TGI,HS 578T breast,5840 nM
same,GI50,HT29 colon,1940 nM
same,TGI,HT29 colon,4480 nM
same,GI50,IGROV1 ovarian,1850 nM
same,TGI,IGROV1 ovarian,4550 nM
same,GI50,K-562 leukemia,1440 nM
same,TGI,K-562 leukemia,4820 nM
same,GI50,KM12 colon,1770 nM
same,TGI,KM12 colon,3780 nM
same,GI50,LOX IMVI melanoma,1400 nM
same,TGI,LOX IMVI melanoma,2790 nM
same,GI50,M14 melanoma,3110 nM
same,TGI,M14 melanoma,12100 nM
same,GI50,MALME-3M melanoma,2470 nM
same,TGI,MALME-3M melanoma,6540 nM
same,GI50,MCF7 breast,970 nM
same,TGI,MCF7 breast,7330 nM
same,GI50,MDA-MB-231 breast,1640 nM
same,TGI,MDA-MB-231 breast,5180 nM
same,GI50,MDA-MB-435,2370 nM
same,TGI,MDA-MB-435,7340 nM
same,GI50,MOLT-4 leukemia,1240 nM
same,TGI,MOLT-4 leukemia,3720 nM
same,GI50,NCI-H226 lung,1590 nM
same,TGI,NCI-H226 lung,3510 nM
